Patent publication US20190022165A1, “METHODS AND COMPOSITIONS FOR THE TREATMENT AND PREVENTION OF PULMONARY ARTERIAL HYPERTENSION” (STEALTH BIOTHERAPEUTICS CORP, priority 2016, published 2019)

Assays:
[1] = system: heart failure subjects with reduced ejection fraction (HFrEF≤35%); test: Single ascending dose trial, 2-D echocardiography: right ventricular systolic pressure (RVSP); format: in vivo, human
Method: (§1) A single-center, randomized, double-blind, placebo-controlled, single ascending dose trial of D-Arg-2′6′-Dmt-Lys-Phe-NH2 was performed in heart failure subjects aged 45-80 years (n=36) with reduced ejection fraction (HFrEF≤35%). Three sequential dose-escalation cohorts were enrolled and administered a single intravenous (IV) dose of D-Arg-2′6′-Dmt-Lys-Phe-NH2 by a 4-hour infusion. In each cohort, 8 subjects were randomly assigned to receive D-Arg-2′6′-Dmt-Lys-Phe-NH2 (active group) and 4 to receive placebo (placebo group infused with 0.9% saline solution in the same manner as the D-Arg-2′6′-Dmt-Lys-Phe-NH2 active group). Eligible subjects were admitted to the research unit on Day 1, were randomized and received the study drug infusion on Day 2 and were discharged on Day 3. Subjects returned to the research unit on Day 7 (+3) for follow-up. The dose levels of D-Arg-2′6′-Dmt-Lys-Phe-NH2 in Cohorts 1, 2, and 3 were 0.005, 0.05, and 0.25 mg/kg/hour, respectively.
(§2) A single dose of the aromatic-cationic peptide, D-Arg-2′6′-Dmt-Lys-Phe-NH2, was administered intravenously (IV) at 0.005 mg/kg/hour (Cohort 1; low dose), 0.05 mg/kg/hour (Cohort 2; intermediate dose), and 0.25 mg/kg/hour (Cohort 3; high dose) over 4 hours at 60 mL/hour.
(§3) Echocardiograms (2-D) were performed on Day 2 at pre-dose (0-hr), mid-dose (2-hr), end-dose (4-hr), and 6 hours, 8 hours, 12 hours after infusion initiation, and at Day 3 at 24 hours after infusion initiation in every subject. Primary echo endpoints included end-diastolic volume (EDV) and EDV index, and end-systolic volume (ESV) and ESV index. Secondary echo endpoints included left atrial (LA) volume, right ventricular fractional area change (RV FAC), and right ventricular systolic pressure (RVSP). Exploratory echo endpoints included global longitudinal strain.
(§4) All statistical analyses, summary tables and data listings were prepared using SAS software Version 9.2 or higher. Overall differences in pharmacokinetic parameters of systemic exposure (e.g., Cmax and AUC) across the 3 different dosing regimens were evaluated by ANOVA. In general, significance was determined at the p<0.05 level. For continuous variables, descriptive statistics (sample size, mean, standard deviation, median, minimum, and maximum values) were determined. For discrete variables, frequency distributions were generated.

[2] = system: heart failure subjects with reduced ejection fraction (HFrEF≤35%); test: Single ascending dose trial, 2-D echocardiography: right ventricular fractional area change (RV FAC); format: in vivo, human; conditions: for RV FAC Δ from baseline, Mean Active Group with 95% CI: Cohort 3, 0.25 mg/kg/hour IV 4-hour infusion
Method: as §1, §2, §3, §4

[3] = system: several mammalian cell types; conditions: cited from earlier work
[4] = Cohort 3, 0.25 mg/kg/hour, 6 Hours
[5] = Cohort 3, 0.25 mg/kg/hour, 8 Hours
[6] = Cohort 3, 0.25 mg/kg/hour, 12 Hours
[7] = Cohort 3, 0.25 mg/kg/hour, 24 Hours
[8] = Cohort 3, 0.25 mg/kg/hour, End-Dose
[9] = Cohort 3, 0.25 mg/kg/hour, Mid-Dose

D-Arg-2′6′-Dmt-Lys-Phe-NH2
RVSP Δ from baseline, Mean Active Group ([1]; Cohort 2, 0.05 mg/kg/hour IV 4-hour infusion, 6 Hours): −4.8 mmHg | RVSP Δ from baseline, Mean Active Group ([1]; Cohort 2, 0.05 mg/kg/hour IV 4-hour infusion, 8 Hours): −6.5 mmHg | RVSP Δ from baseline, Mean Active Group ([1]; Cohort 2, 0.05 mg/kg/hour IV 4-hour infusion, 12 Hours): −5.6 mmHg | RVSP Δ from baseline, Mean Active Group ([1]; Cohort 2, 0.05 mg/kg/hour IV 4-hour infusion, 24 Hours): −5.3 mmHg | RVSP Δ from baseline, Mean Active Group ([1]; Cohort 2, 0.05 mg/kg/hour IV 4-hour infusion, End-Dose): −9.9 mmHg | RVSP Δ from baseline, Mean Active Group ([1]; Cohort 2, 0.05 mg/kg/hour IV 4-hour infusion, Mid-Dose): −8.5 mmHg | RVSP Δ from baseline, Mean Difference (active vs pooled placebo) ([1]; Cohort 2, 0.05 mg/kg/hour, 6 Hours): −4.4 mmHg | RVSP Δ from baseline, Mean Difference (active vs pooled placebo) ([1]; Cohort 2, 0.05 mg/kg/hour, 8 Hours): −4.4 mmHg | RVSP Δ from baseline, Mean Difference (active vs pooled placebo) ([1]; Cohort 2, 0.05 mg/kg/hour, 12 Hours): −9.7 mmHg | RVSP Δ from baseline, Mean Difference (active vs pooled placebo) ([1]; Cohort 2, 0.05 mg/kg/hour, 24 Hours): −5.0 mmHg | RVSP Δ from baseline, Mean Difference (active vs pooled placebo) ([1]; Cohort 2, 0.05 mg/kg/hour, End-Dose): −19.1 mmHg | RVSP Δ from baseline, Mean Difference (active vs pooled placebo) ([1]; Cohort 2, 0.05 mg/kg/hour, Mid-Dose): −8.2 mmHg | pulmonary pressures (RVSP) relative to baseline, in words ([1]; Cohort 2, 0.05 mg/kg/hour, at end dose): significant decrease in pulmonary pressures (RVSP) | RVSP Δ from baseline, Mean Active Group ([1]; Cohort 3, 0.25 mg/kg/hour IV 4-hour infusion, 6 Hours): −11.7 mmHg | RVSP Δ from baseline, Mean Active Group ([1]; Cohort 3, 0.25 mg/kg/hour IV 4-hour infusion, 8 Hours): −1.3 mmHg | RVSP Δ from baseline, Mean Active Group ([1]; Cohort 3, 0.25 mg/kg/hour IV 4-hour infusion, 12 Hours): 2.6 mmHg | RVSP Δ from baseline, Mean Active Group ([1]; Cohort 3, 0.25 mg/kg/hour IV 4-hour infusion, 24 Hours): −1.6 mmHg | RVSP Δ from baseline, Mean Active Group ([1]; Cohort 3, 0.25 mg/kg/hour IV 4-hour infusion, End-Dose): −1.2 mmHg | RVSP Δ from baseline, Mean Active Group ([1]; Cohort 3, 0.25 mg/kg/hour IV 4-hour infusion, Mid-Dose): 0.9 mmHg | RVSP Δ from baseline, Mean Difference (active vs pooled placebo) [1, 4]: −11.3 mmHg | RVSP Δ from baseline, Mean Difference (active vs pooled placebo) [1, 5]: 0.9 mmHg | RVSP Δ from baseline, Mean Difference (active vs pooled placebo) [1, 6]: −1.5 mmHg | RVSP Δ from baseline, Mean Difference (active vs pooled placebo) [1, 7]: −1.3 mmHg | RVSP Δ from baseline, Mean Difference (active vs pooled placebo) [1, 8]: −10.3 mmHg | RVSP Δ from baseline, Mean Difference (active vs pooled placebo) [1, 9]: 1.1 mmHg | right ventricular fractional area change (RV FAC), in words ([2]; Cohort 3, 0.25 mg/kg/hour): overall improvement in right ventricular fractional area change (RV FAC) | RV FAC Δ from baseline, Mean Active Group with 95% CI ([2]; 6 Hours): 2.6 (−0.7, 5.9) % | RV FAC Δ from baseline, Mean Active Group with 95% CI ([2]; 8 Hours): 3.4 (−0.7, 7.5) % | RV FAC Δ from baseline, Mean Active Group with 95% CI ([2]; 12 Hours): 1.7 (−4.0, 7.4) % | RV FAC Δ from baseline, Mean Active Group with 95% CI ([2]; 24 Hours): 2.5 (−2.0, 7.0) % | RV FAC Δ from baseline, Mean Active Group with 95% CI ([2]; End-Dose): 0.3 (−4.8, 5.5) % | RV FAC Δ from baseline, Mean Active Group with 95% CI ([2]; Mid-Dose): 1.6 (−2.6, 5.8) % | RV FAC Δ from baseline, Mean Difference (active vs pooled placebo) [2, 4]: 3.8% | RV FAC Δ from baseline, Mean Difference (active vs pooled placebo) [2, 5]: 4.6% | RV FAC Δ from baseline, Mean Difference (active vs pooled placebo) [2, 6]: 8.9% | RV FAC Δ from baseline, Mean Difference (active vs pooled placebo) [2, 7]: 3.8% | RV FAC Δ from baseline, Mean Difference (active vs pooled placebo) [2, 8]: 0.3% | RV FAC Δ from baseline, Mean Difference (active vs pooled placebo) [2, 9]: 3.8%

2′,6′-Dmt-D-Arg-Phe-Lys-NH2
penetration of the plasma membrane [3]: readily penetrates the plasma membrane of several mammalian cell types in an energy-independent manner
